“And” between values parts separate entries of the source, which are not always exact repeats. Equal entries are not always repeated.
Experiments:
[1] = test system: UMN apical dendrites of WT‐UeGFP mice; test: UMN apical dendrites with vacuoles, WT‐UeGFP mice; assay type: in vivo
Protocol: (§1) hSOD1^G93A‐UeGFP, prpTDP‐43^A315T‐UeGFP and WT‐UeGFP mice were weighed and the required NU‐9 dose per weight was calculated (20 or 100 mg/kg), which was administered once daily by oral gavage, starting at postnatal day (P)60 and continuing until P120. Animals from the untreated group received the vehicle (NMP and olive oil) only. For oral administration purposes, 20 ga × 38 mm plastic feeding tubes were used (Instech Laboratories, Inc). The gavage tip was inserted into the mouth directly over the tongue and into the pharynx. While observing the swallowing reflex, the tip was safely and smoothly slid into the esophagus. Once the administration was completed, the gavage tip was pulled straight out.
Mice were deeply anesthetized using ketamine (90 mg/kg) with xylazine (10 mg/kg), and transcardially perfused with 4% PFA in PBS. The brains were removed intact and postfixed (4% PFA, overnight) and stored in PBS with sodium azide (0.01%) at 4°C. Sections were cut in a coronal (50 µm) plane using a vibratome (Leica) and processed for immunocytochemical analyses.
The antibodies used are as follows: anti‐GFP (1:1000, Invitrogen; or 1:1000, Abcam) and anti‐misfolded SOD1 (B8H10, 1:250, Médimabs). Briefly, sections were treated with blocking solution (PBS, 0.05% BSA, 2% FBS, 1% Triton X‐100, and 0.1% saponin) for 30 min at room temperature and incubated with primary antibody diluted in blocking solution overnight at 4°C. Appropriate secondary fluorescent antibodies (1:500, AlexaFluor‐conjugated, Invitrogen) were added to the blocking solution at room temperature for 2 h in the dark.

hSOD1^G93A‐UeGFP mice = test: Rotarod test, hSOD1^G93A‐UeGFP mice; assay type: in vivo; set-up: Rotarod, Mean Diff. (vehicle minus NU-9) / Rotarod, mean difference GS vehicle vs. GS NU-9 (20) / Rotarod, mean difference GS vehicle vs. GS NU-9 (100): unit not given here; details: for Rotarod, group mean (Mean 1 / Mean 2 of 2way ANOVA multiple comparisons) / Rotarod, mean difference GS vehicle vs. GS NU-9 (20) / Rotarod, mean difference GS vehicle vs. GS NU-9 (100): GS (hSOD1G93A-UeGFP); for Rotarod, mean difference GS vehicle vs. GS NU-9 (20): vehicle minus NU-9 (20); for Rotarod, mean difference GS vehicle vs. GS NU-9 (100): vehicle minus NU-9 (100); for Rotarod, group mean (Mean 1 / Mean 2) / Rotarod, Mean Diff. (vehicle minus NU-9): hSOD1G93A-UeGFP mice; for Rotarod, Average: hSOD1G93A-UeGFP
Protocol: as §1
Behavior data were collected from hSOD1^G93A‐UeGFP and WT‐UeGFP mice (starting at P60 and every 7 days until P116) and from prpTDP‐43^A315T‐UeGFP mice (at P60, P90, and P120) with the following number of mice for each group: WT‐UeGFP vehicle (n = 10), hSOD1^G93A‐UeGFP vehicle (n = 6), WT‐UeGFP 20 mg/kg/day NU‐9 (n = 5), hSOD1^G93A‐UeGFP 20 mg/kg/day NU‐9 (n = 7), WT‐UeGFP 100 mg/kg/day NU‐9 (n = 11), hSOD1^G93A‐UeGFP 100 mg/kg/day NU‐9 (n = 9), prpTDP‐43^A315T‐UeGFP untreated (n ≥ 3), and prpTDP‐43^A315T‐UeGFP 100 mg/kg/day NU‐9 (n = 4) (Table S3).
Mice were placed on a rotating rod that accelerates linearly from 4 to 40 rpm (Rotarod, Ugo Basile), and the average time spent on the rotating rod for three consecutive trials was calculated for each mouse. Mice were allowed to run for a maximum of 5 min with a 5 min rest period between each run, and the latency to fall was recorded for three consecutive trials. The average of the three trials was taken as the data point for each mouse at the age tested, and the performance of different groups are reported as the mean ± SEM.

[2] = set-up: method as in PMID 22189273, PMID 22837812; details: cited from earlier work
[3] = cited from earlier work
[4] = WT-UeGFP mice, NU-9 100 mg/kg/day

## C[C@H](Oc1cc(C(F)(F)F)cc(C(F)(F)F)c1)C1CC(=O)CC(=O)C1 [NU‐9]
[1]; [4]
  Mean, Fig. 4G (UMN apical dendrites with vacuoles): 16.43
  Mean, Fig. 7E (UMN apical dendrites with vacuoles): 16.43
[1]; WT-UeGFP vehicle minus NU-9 100 mg/kg/day, Tukey's multiple comparisons test
  Mean Diff., Fig. 7E, G vehicle vs. G NU-9 (100): 17.11
[1]; WT-UeGFP vehicle minus WT-UeGFP NU-9 100 mg/kg/day, Tukey's multiple comparisons test
  Mean Diff., Fig. 4G, G Vehicle vs. G NU-9 (100): 11.77
[1]; WT‐UeGFP mice, 100 mg/kg/day oral gavage P60–P120
  percentage of UMN apical dendrites with vacuoles: 16% ± 5%
hSOD1^G93A‐UeGFP mice; NU-9 (20), P102
  Rotarod, group mean (Mean 1 / Mean 2 of 2way ANOVA multiple comparisons): 158.8
hSOD1^G93A‐UeGFP mice; NU-9 (20), P109
  Rotarod, group mean (Mean 1 / Mean 2 of 2way ANOVA multiple comparisons): 149.1
hSOD1^G93A‐UeGFP mice; NU-9 (20), P116
  Rotarod, group mean (Mean 1 / Mean 2 of 2way ANOVA multiple comparisons): 107.7
hSOD1^G93A‐UeGFP mice; NU-9 (100), P102
  Rotarod, group mean (Mean 1 / Mean 2 of 2way ANOVA multiple comparisons): 170
hSOD1^G93A‐UeGFP mice; NU-9 (100), P109
  Rotarod, group mean (Mean 1 / Mean 2 of 2way ANOVA multiple comparisons): 151.3
hSOD1^G93A‐UeGFP mice; NU-9 (100), P116
  Rotarod, group mean (Mean 1 / Mean 2 of 2way ANOVA multiple comparisons): 128.5
hSOD1^G93A‐UeGFP mice; P102
  Rotarod, mean difference GS vehicle vs. GS NU-9 (20): 22.8
  Rotarod, mean difference GS vehicle vs. GS NU-9 (100): 11.61
hSOD1^G93A‐UeGFP mice; P109
  Rotarod, mean difference GS vehicle vs. GS NU-9 (20): 18.74
  Rotarod, mean difference GS vehicle vs. GS NU-9 (100): 16.57
hSOD1^G93A‐UeGFP mice; P116
  Rotarod, mean difference GS vehicle vs. GS NU-9 (20): 14.44
  Rotarod, mean difference GS vehicle vs. GS NU-9 (100): -6.407
hSOD1^G93A‐UeGFP mice; NU-9 20 mg/kg/day, P60
  Rotarod, group mean (Mean 1 / Mean 2): 221.3
hSOD1^G93A‐UeGFP mice; NU-9 20 mg/kg/day, P67
  Rotarod, group mean (Mean 1 / Mean 2): 221.6
hSOD1^G93A‐UeGFP mice; NU-9 20 mg/kg/day, P74
  Rotarod, group mean (Mean 1 / Mean 2): 213.6
hSOD1^G93A‐UeGFP mice; NU-9 20 mg/kg/day, P81
  Rotarod, group mean (Mean 1 / Mean 2): 207.4
hSOD1^G93A‐UeGFP mice; NU-9 20 mg/kg/day, P88
  Rotarod, group mean (Mean 1 / Mean 2): 209.5
hSOD1^G93A‐UeGFP mice; NU-9 20 mg/kg/day, P95
  Rotarod, group mean (Mean 1 / Mean 2): 178.8
hSOD1^G93A‐UeGFP mice; NU-9 100 mg/kg/day, P60
  Rotarod, group mean (Mean 1 / Mean 2): 206.8
hSOD1^G93A‐UeGFP mice; NU-9 100 mg/kg/day, P67
  Rotarod, group mean (Mean 1 / Mean 2): 223.1
hSOD1^G93A‐UeGFP mice; NU-9 100 mg/kg/day, P74
  Rotarod, group mean (Mean 1 / Mean 2): 224
hSOD1^G93A‐UeGFP mice; NU-9 100 mg/kg/day, P81
  Rotarod, group mean (Mean 1 / Mean 2): 223.4
hSOD1^G93A‐UeGFP mice; NU-9 100 mg/kg/day, P88
  Rotarod, group mean (Mean 1 / Mean 2): 203.8
hSOD1^G93A‐UeGFP mice; NU-9 100 mg/kg/day, P95
  Rotarod, group mean (Mean 1 / Mean 2): 191
hSOD1^G93A‐UeGFP mice; vehicle vs. NU-9 20 mg/kg/day, P60
  Rotarod, Mean Diff. (vehicle minus NU-9): -28.22
hSOD1^G93A‐UeGFP mice; vehicle vs. NU-9 20 mg/kg/day, P67
  Rotarod, Mean Diff. (vehicle minus NU-9): 4.159
hSOD1^G93A‐UeGFP mice; vehicle vs. NU-9 20 mg/kg/day, P74
  Rotarod, Mean Diff. (vehicle minus NU-9): 4.103
hSOD1^G93A‐UeGFP mice; vehicle vs. NU-9 20 mg/kg/day, P81
  Rotarod, Mean Diff. (vehicle minus NU-9): -5.651
hSOD1^G93A‐UeGFP mice; vehicle vs. NU-9 20 mg/kg/day, P88
  Rotarod, Mean Diff. (vehicle minus NU-9): -17.41
hSOD1^G93A‐UeGFP mice; vehicle vs. NU-9 20 mg/kg/day, P95
  Rotarod, Mean Diff. (vehicle minus NU-9): 23.52
hSOD1^G93A‐UeGFP mice; vehicle vs. NU-9 20 mg/kg/day, P102
  Rotarod, Mean Diff. (vehicle minus NU-9): 22.8
hSOD1^G93A‐UeGFP mice; vehicle vs. NU-9 20 mg/kg/day, P109
  Rotarod, Mean Diff. (vehicle minus NU-9): 18.74
hSOD1^G93A‐UeGFP mice; vehicle vs. NU-9 20 mg/kg/day, P116
  Rotarod, Mean Diff. (vehicle minus NU-9): 14.44
hSOD1^G93A‐UeGFP mice; vehicle vs. NU-9 100 mg/kg/day, P60
  Rotarod, Mean Diff. (vehicle minus NU-9): -13.7
hSOD1^G93A‐UeGFP mice; vehicle vs. NU-9 100 mg/kg/day, P67
  Rotarod, Mean Diff. (vehicle minus NU-9): 2.704
hSOD1^G93A‐UeGFP mice; vehicle vs. NU-9 100 mg/kg/day, P74
  Rotarod, Mean Diff. (vehicle minus NU-9): -6.241
hSOD1^G93A‐UeGFP mice; vehicle vs. NU-9 100 mg/kg/day, P81
  Rotarod, Mean Diff. (vehicle minus NU-9): -21.67
hSOD1^G93A‐UeGFP mice; vehicle vs. NU-9 100 mg/kg/day, P88
  Rotarod, Mean Diff. (vehicle minus NU-9): -11.7
hSOD1^G93A‐UeGFP mice; vehicle vs. NU-9 100 mg/kg/day, P95
  Rotarod, Mean Diff. (vehicle minus NU-9): 11.37
hSOD1^G93A‐UeGFP mice; vehicle vs. NU-9 100 mg/kg/day, P102
  Rotarod, Mean Diff. (vehicle minus NU-9): 11.61
hSOD1^G93A‐UeGFP mice; vehicle vs. NU-9 100 mg/kg/day, P109
  Rotarod, Mean Diff. (vehicle minus NU-9): 16.57
hSOD1^G93A‐UeGFP mice; vehicle vs. NU-9 100 mg/kg/day, P116
  Rotarod, Mean Diff. (vehicle minus NU-9): -6.407
hSOD1^G93A‐UeGFP mice; NU-9 20 mg/kg/day po, P60
  Rotarod, Average: 221.333 s
hSOD1^G93A‐UeGFP mice; NU-9 20 mg/kg/day po, P67
  Rotarod, Average: 221.619 s
hSOD1^G93A‐UeGFP mice; NU-9 20 mg/kg/day po, P74
  Rotarod, Average: 213.619 s
hSOD1^G93A‐UeGFP mice; NU-9 20 mg/kg/day po, P81
  Rotarod, Average: 207.429 s
hSOD1^G93A‐UeGFP mice; NU-9 20 mg/kg/day po, P88
  Rotarod, Average: 209.524 s
hSOD1^G93A‐UeGFP mice; NU-9 20 mg/kg/day po, P95
  Rotarod, Average: 178.81 s
hSOD1^G93A‐UeGFP mice; NU-9 20 mg/kg/day po, P102
  Rotarod, Average: 158.81 s
hSOD1^G93A‐UeGFP mice; NU-9 20 mg/kg/day po, P109
  Rotarod, Average: 149.095 s
hSOD1^G93A‐UeGFP mice; NU-9 20 mg/kg/day po, P116
  Rotarod, Average: 107.667 s
hSOD1^G93A‐UeGFP mice; NU-9 100 mg/kg/day po, P60
  Rotarod, Average: 206.815 s
hSOD1^G93A‐UeGFP mice; NU-9 100 mg/kg/day po, P67
  Rotarod, Average: 223.074 s
hSOD1^G93A‐UeGFP mice; NU-9 100 mg/kg/day po, P74
  Rotarod, Average: 223.963 s
hSOD1^G93A‐UeGFP mice; NU-9 100 mg/kg/day po, P81
  Rotarod, Average: 223.444 s
hSOD1^G93A‐UeGFP mice; NU-9 100 mg/kg/day po, P88
  Rotarod, Average: 203.815 s
hSOD1^G93A‐UeGFP mice; NU-9 100 mg/kg/day po, P95
  Rotarod, Average: 190.963 s
hSOD1^G93A‐UeGFP mice; NU-9 100 mg/kg/day po, P102
  Rotarod, Average: 170 s
hSOD1^G93A‐UeGFP mice; NU-9 100 mg/kg/day po, P109
  Rotarod, Average: 151.259 s
hSOD1^G93A‐UeGFP mice; NU-9 100 mg/kg/day po, P116
  Rotarod, Average: 128.519 s
hSOD1^G93A‐UeGFP mice; hSOD1^G93A‐UeGFP mice, regardless of dose (20 or 100 mg/kg/day)
  rotarod performance: did not result in significant improvement
[2]
  Plasma protein binding: 90%
[3]
  Brain penetration: 8 µM and 8.3 µM
  blood brain barrier crossing: crossed the blood brain barrier
[3]; in vivo, mice
  t 1/2: 2.7 h and 2.73 h
[3]; ip, mice, dose 500 mg/kg
  Blood levels (t max): 12 h (500 mg/kg)
[3]; mice
  Oral bioavailability: 94%
[3]; mouse
  CL (mouse): 44 mL/min/kg
[3]; po
  AUC: 3452 h‐ng/ml po
